# Structures can show the parent of a compound that is named as a salt.
# Key:
# [1] = test system: human forebrain organoids; experiment: Forebrain organoid proliferation, apoptosis, size and structure after ZIKV infection; assay type: cell-based
# Description: Scale bars, 100 μm. […] Scale bars, 100 μm. […] Scale bars, 50 μm.
# Medium was changed every other day.
# [2] = test system: ZIKV (FSS13025 strain); experiment: Therapeutic treatment of ZIKV (FSS13025 strain) infected SCID-beige mice; assay type: in vivo; details: HH 100 mg/kg/day subcutaneously for 7 days from day 7 post-infection
# Method: (§1) (A) Scheme of prophylactic treatment of HH in vivo. HH was administrated to SCID-Beige mice 12 h before infection with MR766 virus strain. HH was injected at a dose of 100 mg/kg/day subcutaneously and euthanized at day 7. (B) qRT-PCR analysis of total ZIKV vRNA in liver, spleen, kidney and brain of ZIKV infected mice. n=12 for liver, spleen and kidney and 20 for brain. (C) qRT-PCR analysis of total ZIKV vRNA in brains of ZIKV-infected mice treated with vehicle (n=14) or HH (n=8). […] (D-F) Immunohistochemical analysis of adult cortex. […] HH prevents infection in all cortical cells. Scale bar=100 μm in (D) and 10 μm in (E, F). (G-I) Immunohistochemical analysis of adult hippocampus. […] HH inhibits infection of all cells in the hippocampus. […] The mice were then euthanized and RNA from brains was analyzed using qRT-PCR. […] The mice were euthanized after 7 days treatment and RNA from brains was analyzed using qRT-PCR. (W, X) qRT-PCR analysis of total vRNA (W) and (−) strand RNA (X) in the brains of mice treated with vehicle (n=8) or HH (n=11) at day 7 post-infection. p values were calculated by one-way repeated measures ANOVA or two-way repeated measures ANOVA with a Bonferroni test for multiple comparisons. *p<0.05, **p<0.01 and ***p<0.001.
# (§2) To evaluate the therapeutic potential of HH, we first monitored the kinetics of ZIKV infection (MR766 strain) in the adult mouse brain. […]
# [3] = test system: ZIKV (FSS13025 strain); experiment: qRT-PCR of vRNA in human forebrain organoids treated 42 h or 48 h post-infection (FSS13025); assay type: cell-based, Zika virus; details: HH added at 42 h or 48 h post-infection, additional 3 days
# Method: Immunocytochemical analysis of D20+4 ZIKV-infected organoids treated with 15 μM AQ or DMSO or with mock infection (n=3). D20+4 organoids were stained for SOX2, ZIKV E and with DAPI to monitor the ZIKV infection rate. D20+4 organoids were also stained for Ki67, CAS3 and with DAPI to monitor the cell proliferation and apoptosis rate. […] Scale bars, 100 μm. (B) The expression dynamics of ZIKV vRNA (FSS13025 strain) in human forebrain organoids. qRT-PCR analysis to quantify the total and replicating (−) strand vRNA levels in the human forebrain organoids at different time points post-infection. […] (C) qRT-PCR analysis of human forebrain organoids that were treated with 25 μM HH or DMSO at 42 h or 48 h post-ZIKV (FSS13025 strain) infection and maintained for additional 3 days. p values were calculated by unpaired two-tailed Student's t-test. *p<0.05, **p<0.01 and ***p<0.001, if not mentioned specifically.
# To further validate the effect of HH on ZIKV-infected brain organoids, we first monitored ZIKV vRNA expression dynamics in organoids using qRT-PCR analysis.
# RNA Extraction and qRT-PCR. Total RNA of cultured cells and organs was extracted with RNeasy plus mini kit (Qiagen). vRNA from cell culture supernatant or mouse serum was extracted with QIAampe viral RNA mini kit (Qiagen). […] ZIKV vRNA levels were calculated using a standard curve generated using serial 10-fold dilutions of ZIKV vRNA.
# [4] = test system: ZIKV (MR766 strain); experiment: Therapeutic treatment of ZIKV (MR766 strain) infected SCID-beige mice; assay type: in vivo; details: HH 100 mg/kg/day subcutaneously for 5 days from day 5 post-infection
# Method: as §1, §2
smiles,measurement,setting,value
"CN1CCC2=C[C@H](O)[C@H]3OC(=O)c4cc5c(cc4[C@H]3[C@@H]21)OCO5 [HH, hippeastrine hydrobromide]",ZIKV-associated proliferation (Ki67+) and apoptosis (CAS3+) defects in D20 organoids,[1]; 25 μM HH for 3 days,completely rescued
same,ZIKV-induced structural defects in long-term organoid cultures,"[1]; 25 μM HH, D20+18",successfully rescued
same,cross-sectional area of ZIKV infected organoids at D20+18,"[1]; 25 μM HH, mock 1.6, ZIKV 0.4",1.4 mm^2
same,neurotoxicity in forebrain organoids,[1]; HH compared with AQ,did not exhibit similar neurotoxicity as AQ
same,total and replication (-) strand vRNA in mouse brain,[2],significantly decreased
same,total and replicating (-) ZIKV vRNA levels in forebrain organoids,[3],significantly decreased
same,total and replicating (-) vRNA levels in brain,[4],significantly decreased
